According to US6369069B1 (Aventis Pharma Deutschland GmbH, priority 1998, dated 2002):

What follows are compounds tested on Na^+-dependent Cl^−/HCO3^− exchanger (NCBE) (assay: Inhibition of the Na+-dependent Cl−/HCO3− exchanger (NCBE) in human endothelial cells (pHi recovery, BCECF fluorescence, FLIPR)). Settings: 10 μM.
Assay type: cell-based
Procedure: Inhibition of the Na^+-dependent Cl^−/HCO3^− exchanger (NCBE) in human endothelial cells
Human endothelial cells (ECV-304) were detached form culture flasks with the aid of trypsin/EDTA buffer (0.05/0.02% in phosphate buffer) and, after centrifugation (100 g, 5 min), taken up in a buffered saline solution (mmol/l: 115 NaCl, 20 NH4Cl, 5 KCl, 1 CaCl2, 1 MgSO4, 20 N-(2-hydroxyethyl)-piperazine-N[…]-2-ethanesulfonic acid (HEPES), 5 glucose and 1 g/l of bovine serum albumin; pH 7.4). This cell suspension was incubated at 37 °C. for 20 min with 5 μM BCECF acetoxymethyl ester. The cells were then washed and resuspended in a sodium- and bicarbonate-free buffer solution (mmol/l: 5 HEPES, 133.8 choline chloride, 4.7 KCl, 1.25 MgCl2, 0.97 K2HPO4, 0.23 KH2PO4, 5 glucose; pH 7.4).
For the subsequent fluorescence measurement in the FLIPR (Fluorescent Imaging Plate Reader), 100 μl of this cell suspension in each case containing 20,000 cells were added by pipette per well of a 96-well microtiter plate and this microtiter plate was centrifuged (100 g, 5 min). In the FLIPR, 100 μl of buffer solution in each case were then removed from a further prepared microtiter plate and added by pipette to each of the 96 wells of the measuring plate. In this case, for a 100% control, i.e. a recovery of the intracellular pH (pHi) by means of the NCBE, a bicarbonate- and sodium-containing buffer solution (mmol/l: 5 HEPES, 93.8 NaCl, 40 NaHCO3, 4.7 KCl, 1.25 CaCl2, 1.25 MgCl2, 0.97 Na2HPO4, 0.23 NaH2PO4, 5 glucose; pH 7.4) which contained 50 μM HOE 642 was used. For a 0% control, i.e. no pHi recovery at all, a bicarbonate-free, sodium-containing buffer solution (mmol/l: 5 HEPES, 133.8 NaCl, 4.7 KCl, 1.25 CaCl2, 1.25 MgCl2, 0.97 Na2HPO4, 0.23 NaH2PO4, 5 glucose; pH 7.4) to which 50 μM HOE 642 were also added was employed. The compounds according to the invention were added in various concentrations of the sodium- and bicarbonate-containing solution. After addition of the buffer solutions to the dye-loaded acidified cells situated in the measuring plate, the increase in the fluorescence intensity which corresponded to an increase in the pHi was determined in each well of the microtiter plate.
The kinetics were in this case recorded at 35° C. over a period of 2 minutes. The increase in the fluorescence intensities for different concentrations of the compounds according to the invention was related to the two controls and from this the inhibitory action of the substances was determined.

| SMILES | Residual activity % of the NCBE at 10 μM [%] |
| --- | --- |
| CC(C)=CCCC(C)=CCN(Cc1ccc(-c2ccccc2S(=O)(=O)NC#N)cc1)C(=O)CC1CCCCC1 [Example 353] | 47.9 |
| N#CNS(=O)(=O)c1ccccc1-c1ccc(CN(Cc2ccc(Cl)c(Cl)c2)C(=O)C(NC(=O)OCc2ccccc2)c2ccccc2)cc1 (stereo not shown) [Example 260] | 69.8 |
| Cc1ccc(CN(Cc2ccc(-c3ccccc3S(=O)(=O)NC#N)cc2)C(=O)Cc2ccccc2)cc1 [Example 125] | 63.6 |
| C[C@H](c1ccccc1)N(Cc1ccc(-c2ccccc2S(=O)(=O)NC#N)cc1)C(=O)Cc1cccs1 [Example 133] | 40.9 |
| N#CNS(=O)(=O)c1ccccc1-c1ccc(CN(CCOc2ccccc2)C(=O)COc2ccccc2)cc1 [Example 166] | 57.9 |
| COC(=O)C(Cc1ccccc1)N(Cc1ccc(-c2ccccc2S(=O)(=O)NC#N)cc1)C(=O)CCCCc1cccs1 (stereo not shown) [Example 225] | 88.1 |
| N#CNS(=O)(=O)c1ccccc1-c1ccc(CN(Cc2ccc3ccccc3c2)C(=O)CCOc2ccccc2)cc1 [Example 340] | 37.2 |
| N#CNS(=O)(=O)c1ccccc1-c1ccc(CN(Cc2ccccc2Cl)C(=O)c2ccccc2F)cc1 [Example 91] | 62.7 |
| N#CNS(=O)(=O)c1ccccc1-c1ccc(CN(Cc2ccc(C(F)(F)F)cc2)C(=O)Cc2ccccc2)cc1 [Example 129] | 47.4 |
| N#CNS(=O)(=O)c1ccccc1-c1ccc(CN(C(=O)Cc2cccs2)C2CCCCC2)cc1 [Example 30] | 95.2 |
| COCCC(=O)N(Cc1ccc(-c2ccccc2S(=O)(=O)NC#N)cc1)Cc1cccc(Cl)c1Cl [Example 319] | 38.0 |
| N#CNS(=O)(=O)c1ccccc1-c1ccc(CN(Cc2ccccc2Cl)C(=O)Cc2ccccc2Cl)cc1 [Example 291] | 23.7 |
| COC(=O)C(Cc1ccccc1)N(Cc1ccc(-c2ccccc2S(=O)(=O)NC#N)cc1)C(=O)C(=O)c1cccs1 (stereo not shown) [Example 201] | 69.6 |
| Cc1cccc(CN(Cc2ccc(-c3ccccc3S(=O)(=O)NC#N)cc2)C(=O)Cc2cccs2)c1 [Example 311] | 10.4 |
| N#CNS(=O)(=O)c1ccccc1-c1ccc(CN(CC2CC2)C(=O)Cc2cccs2)cc1 [Example 144] | 60.3 |
| N#CNS(=O)(=O)c1ccccc1-c1ccc(CN(C(=O)C(=O)c2cccs2)C2CC2)cc1 [Example 197] | 79.9 |
| N#CNS(=O)(=O)c1ccccc1-c1ccc(CN(Cc2ccccc2)C(=O)C(N)c2ccccc2)cc1 (stereo not shown) [Example 241] | 66.0 |
| N#CNS(=O)(=O)c1ccccc1-c1ccc(CN(Cc2ccccc2)C(=O)CCC2CCCCC2)cc1 [Example 7] | 33.0 |
| C[C@@H](c1ccccc1)N(Cc1ccc(-c2ccccc2S(=O)(=O)NC#N)cc1)C(=O)C(C(=O)Cc1ccccc1)c1ccccc1 (stereo partly shown) [Example 136] | 93.6 |
| N#CNS(=O)(=O)c1ccccc1-c1ccc(CN(CCCc2ccccc2)C(=O)Cc2cccs2)cc1 [Example 236] | 35.1 |

| SMILES | Residual activity % of the NCBE at 10 μM [%] |
| --- | --- |
| N#CNS(=O)(=O)c1ccccc1-c1ccc(CN(CC2CCCCC2)C(=O)CCCCc2ccccc2)cc1 [Example 266] | 79.7 |
| COc1ccc(CN(Cc2ccc(-c3ccccc3S(=O)(=O)NC#N)cc2)C(C)=O)cc1 [Example 69] | 95.4 |
| CC(C)CN(Cc1ccc(-c2ccccc2S(=O)(=O)NC#N)cc1)C(=O)C(c1ccccc1)c1ccccc1 [Example 112] | 90.4 |
| N#CNS(=O)(=O)c1ccccc1-c1ccc(CN(Cc2ccc(Cl)cc2)C(=O)Cc2cccs2)cc1 [Example 28] | 95.2 |
| N#CNS(=O)(=O)c1ccccc1-c1ccc(CN(Cc2cccc(Cl)c2)C(=O)CCc2cccs2)cc1 [Example 290] | 45.8 |
| CC(C)(C)c1ccc(C(=O)N(CCO)Cc2ccc(-c3ccccc3S(=O)(=O)NC#N)cc2)cc1 [Example 32] | 68.0 |
| N#CNS(=O)(=O)c1ccccc1-c1ccc(CN(CC2CCCCC2)C(=O)Cc2ccccc2[N+](=O)[O-])cc1 [Example 257] | 54.6 |
| N#CNS(=O)(=O)c1ccccc1-c1ccc(CN(Cc2ccccc2)C(=O)NCc2ccccc2)cc1 [Example 299] | 48.6 |
| N#CNS(=O)(=O)c1ccccc1-c1ccc(CN(Cc2ccccn2)C(=O)Cc2c[nH]c3ccccc23)cc1 [Example 204] | 52.4 |
| CCN(Cc1ccc(-c2ccccc2S(=O)(=O)NC#N)cc1)C(=O)Cc1csc2ccccc12 [Example 215] | 65.7 |
| C[C@@H](c1ccccc1)N(Cc1ccc(-c2ccccc2S(=O)(=O)NC#N)cc1)C(=O)c1cc2ccccc2s1 [Example 73] | 61.0 |
| N#CNS(=O)(=O)c1ccccc1-c1ccc(CN(CC2CCCO2)C(=O)Cc2cccs2)cc1 (stereo not shown) [Example 318] | 16.4 |
| C[C@H](c1ccccc1)N(Cc1ccc(-c2ccccc2S(=O)(=O)NC#N)cc1)C(=O)c1ccccc1Cl [Example 108] | 87.7 |
| N#CNS(=O)(=O)c1ccccc1-c1ccc(CN(Cc2ccc(C(F)(F)F)cc2)C(=O)c2cc3ccccc3s2)cc1 [Example 79] | 61.7 |
| CCN(Cc1ccc(-c2ccccc2S(=O)(=O)NC#N)cc1)C(=O)CCCc1cccs1 [Example 191] | 39.3 |
| CCCC(=O)N(Cc1ccc(OC)cc1)Cc1ccc(-c2ccccc2S(=O)(=O)NC#N)cc1 [Example 3] | 80.9 |
| COc1cc(CN(Cc2ccc(-c3ccccc3S(=O)(=O)NC#N)cc2)C(=O)Cc2ccc(Cl)cc2)cc(OC)c1OC [Example 155] | 34.2 |
| C[C@@H](c1ccccc1)N(Cc1ccc(-c2ccccc2S(=O)(=O)NC#N)cc1)C(=O)C(c1ccccc1)c1ccccc1 [Example 113] | 94.6 |
| COCCC(=O)N(CC=C(C)CCC=C(C)C)Cc1ccc(-c2ccccc2S(=O)(=O)NC#N)cc1 [Example 323] | 23.6 |
| CN(Cc1ccc(-c2ccccc2S(=O)(=O)NC#N)cc1)C(=O)Cc1ccsc1 [Example 230] | 68.6 |

Same assay, conditions: compound at 10 μM; sub-table with R7 substituent

| SMILES | Residual activity % of the NCBE at 10 μM [%] |
| --- | --- |
| Cc1ccc(-c2ccc(CN(Cc3ccccc3F)C(=O)Cc3ccc(Cl)cc3)cc2)c(S(=O)(=O)NC#N)c1 [Example 535] | 84.0 |
| Cc1ccc(-c2ccc(CN(Cc3ccccc3)C(=O)Cc3ccc(Cl)cc3)cc2)c(S(=O)(=O)NC#N)c1 [Example 529] | 89.4 |
| Cc1ccc(-c2ccc(CN(CCc3ccccc3)C(=O)Cc3ccc(Cl)cc3)cc2)c(S(=O)(=O)NC#N)c1 [Example 534] | 80.0 |
| Cc1ccc(-c2ccc(CN(Cc3cccc4ccccc34)C(=O)Cc3cccs3)cc2)c(S(=O)(=O)NC#N)c1 [Example 514] | 74.9 |
| Cc1ccc(-c2ccc(CN(Cc3ccc4ccccc4c3)C(=O)CC3CCCCC3)cc2)c(S(=O)(=O)NC#N)c1 [Example 547] | 76.5 |
| Cc1ccc(-c2ccc(CN(Cc3ccccc3Cl)C(=O)Cc3cccs3)cc2)c(S(=O)(=O)NC#N)c1 [Example 516] | 98.7 |
